Assay results: patent publication US20210353579A1, “HIGH PENETRATION COMPOSITIONS AND USES THEREOF” (Techfields Pharma Co., Ltd., priority 2006, published 2021)
In brackets after ≈: the same amount, converted by molar mass.

How the values were obtained:
[1] = Plasma levels after transdermal administration to hairless mice; type: in vivo; conditions: for t, time to peak plasma level after parent compound: parent compound administered (time when taken orally); for Peak plasma concentration after parent compound: parent compound administered, hairless mice
Protocol: Tested compounds (20% solution or suspension in 1 mL isopropanol) are administered transdermally to the skin of intact hairless mice. The plasma levels of the parent compounds are determined by HPLC.

[2] = system: human skin tissue; conditions: human, 20 %, pH 7.4
[3] = Solubility in water / aqueous solubility of HPPs and parent drugs; conditions: water
[4] = system: rat; conditions: rats;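 also: acute toxicity in rats expressed as LD50, determined for both prodrugs and their parent compounds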
Protocol: The acute toxicity of the prodrug compounds and parent compounds are measured by LD50 of rat.

Compound | t, time to peak plasma level after parent compound [1] | Peak plasma concentration after parent compound [1] | In vitro penetration rate (apparent flux), parent compounds [2] | solubility [3] | LD50 of HPP [4]
CC(C(=O)O)c1ccc(CC2CCCC2=O)cc1 (stereo not shown) [Loxoprofen, loxoprofen, reference compound] | 2 to 4 h | 10 mg/L | 30 μg/cm^2/h | 100 µg/mL (≈ 406 µM) | –
CC(C(=O)O)c1ccc(C(=O)c2ccccc2)s1 (stereo not shown) [Tiaprofenic acid, tiaprofenic acid, reference compound] | 2 to 4 h | 10 mg/L | 30 μg/cm^2/h | 100 µg/mL (≈ 384 µM) | –
CC(=O)Oc1ccccc1C(=O)OCCN(C)C [dimethylaminoethyl acetylsalicylate.AcOH] | – | – | – | – | 2200 mg/kg
Cc1ccc2c(c1)CC(=O)c1cc(C(C)C(=O)O)ccc1O2 (stereo not shown) [Bermoprofen, bermoprofen, reference compound] | 2 to 4 h | 10 mg/L | 40 μg/cm^2/h | 100 µg/mL (≈ 337 µM) | –
Cc1cc(NC(=O)C2=C(O)c3ccccc3S(=O)(=O)N2C)no1 [Isoxicam, isoxicam, reference compound] | 2 to 4 h | 0.1 mg/L | <1 μg/cm^2/h | < 100 µg/mL | –
Cc1cnc(NC(=O)C2=C(O)c3ccccc3S(=O)(=O)N2C)s1 [Meloxicam, meloxicam, reference compound] | 2 to 4 h | 0.1 mg/L | <1 μg/cm^2/h | < 100 µg/mL | –
CC(C(=O)O)c1ccc(-c2ccccc2)c(F)c1 (stereo not shown) [Flurbiprofen, flurbiprofen, reference compound] | 2 to 4 h | 10 mg/L | 30 μg/cm^2/h | 200 µg/mL (≈ 819 µM) | –
CC(C(=O)O)c1ccc(N2CC=CC2)c(Cl)c1 (stereo not shown) [Pirprofen, pirprofen, reference compound] | 2 to 4 h | 10 mg/L | 30 μg/cm^2/h | 100 µg/mL (≈ 397 µM) | –
CC(=O)O.CC(C)Cc1ccc(C(C)C(=O)OCCN(C)C)cc1 (stereo not shown) [dimethylaminoethyl 2-(ρ-isobutylphenyl) propionate.AcOH] | – | – | – | – | 1600 mg/kg
C=CCOc1ccc(CC(=O)O)cc1Cl [Alclofenac, alclofenac, reference compound] | 1 to 2 h | 0.1 mg/L | 10 μg/cm^2/h | 100 µg/mL (≈ 441 µM) | –
O=C(O)CCc1nc(-c2ccccc2)c(-c2ccccc2)o1 [Oxaprozin, oxaprozin, reference compound] | 2 to 4 h | 10 mg/L | 30 μg/cm^2/h | 100 µg/mL (≈ 341 µM) | –
CN1C(C(=O)Nc2ccccn2)=C(O)c2sc(Cl)cc2S1(=O)=O [Lornoxicam, lornoxicam, reference compound] | 2 to 4 h | 0.1 mg/L | <1 μg/cm^2/h | < 100 µg/mL | –
CC(C(=O)O)c1ccc(C(=O)c2cccs2)cc1 (stereo not shown) [Suprofen, suprofen, reference compound] | 2 to 4 h | 10 mg/L | 30 μg/cm^2/h | 100 µg/mL (≈ 384 µM) | –
